Results published in publication PMC6036117, “Structural Insight Into Conformational Changes Induced by ATP Binding in a Type III Secretion-Associated ATPase From Shigella flexneri” (Frontiers in Microbiology, 2018).
Where two headings read alike, the source gives them in different places.

Key:
Spa47Δ1-83 = target: T1, Spa47Δ1-83 (Shigella flexneri, UniProt P0A1C1); assay: Isothermal titration calorimetry (ITC) of nucleotide binding to monomeric Spa47Δ1-83; details: for Ka (affinity constant) / ΔH (enthalpy variation) / ΔS (entropy variation): ATP without Mg2+, other ligands with Mg2+
T1 construct: The cDNA encoding Spa47Δ1-83 (84–430 aa) was amplified; 6xHis (pET28a, thrombin site) (N, cleaved yes); made in house; host or cells: E. coli Rosetta (DE3)
Description: An isothermal titration calorimetry (ITC) assay was performed with a MicroCalTM iTC200 calorimeter (MicroCal, USA) at 25°C. Both the protein and the ATP homolog were dissolved in the same buffer (20 mM Tris-HCl, pH = 8.0, 100 mM NaCl, 5 mM MgCl2). The concentrations of Spa47Δ1-83 and the mutants were between 0.03 and 0.04 mM. The concentration of ATP analogs was between 1 and 2 mM. Titration consisted of 18 consecutive 2-μl injections of ATP analogs with a 120-s interval between injections using a stir rate of 600 rpm. The dilution heat of the ligand was measured by adding ligand to a buffer solution under these conditions, and the injection schedule was identical to that used for the protein sample. For titration of the protein with ATP, MgCl2 was omitted in the buffer. Data acquisition and analysis were performed using Origin software. A single binding site model was used for nonlinear curve fitting. ITC experiments were repeated twice for each ligand.

muscle creatine kinase = target: muscle creatine kinase; parameters: method as in Forstner et al., 1999; details: ATP binding; ref Forstner et al., 1999; cited from earlier work
p97 = target: p97; parameters: method as in Tang et al., 2010; details: ATP binding; ref Tang et al., 2010; cited from earlier work
[1] = target: subunit B of the A1A0 ATP synthase; parameters: method as in Kumar et al., 2009; details: ATP binding; ref Kumar et al., 2009; cited from earlier work
[2] = ITC, 25°C, 20 mM Tris-HCl pH 8.0, 100 mM NaCl, 5 mM MgCl2 (MgCl2 omitted for ATP), single binding site model, Kd calculated as 1/Ka, read-out: Kd (apparent dissociation constant)

Nc1ncnc2c1ncn2[C@@H]1O[C@H](COP(=O)(O)OP(=O)(O)NP(=O)(O)O)[C@@H](O)[C@H]1O [AMPPNP]
Kd (Spa47Δ1-83; ITC, 25°C, 20 mM Tris-HCl pH 8.0, 100 mM NaCl, 5 mM MgCl2 (MgCl2 omitted for ATP), single binding site model, Kd calculated as 1/Ka, listed as AMP-PNP, read-out: Kd (apparent dissociation constant)): 322 ± 12.6 µM
Kd (Spa47Δ1-83; [2]): 322 ± 12.6 µM
Ka (affinity constant) (Spa47Δ1-83; ITC, 25°C): 0.031±0.001 10^5. M^-1
ΔH (enthalpy variation) (Spa47Δ1-83; ITC, 25°C): -7.21 ± 0.11 kcal/mol
ΔS (entropy variation) (Spa47Δ1-83; ITC, 25°C): -8.20 cal/mole/deg
fold lower binding affinity than ATP and ATPγS (Spa47Δ1-83; ITC, relative to the affinity measured for ATP and ATPγS): ~ 15 fold

Nc1ncnc2c1ncn2[C@@H]1O[C@H](COP(=O)(O)OP(=O)(O)O)[C@@H](O)[C@H]1O [ADP]
Kd (Spa47Δ1-83; [2]): 150 ± 6.03 µM
Ka (affinity constant) (Spa47Δ1-83; ITC, 25°C): 0.067±0.003 10^5. M^-1
ΔH (enthalpy variation) (Spa47Δ1-83; ITC, 25°C): -17.24 ± 3.82 kcal/mol
ΔS (entropy variation) (Spa47Δ1-83; ITC, 25°C): -40.30 cal/mole/deg

Nc1ncnc2c1ncn2[C@@H]1O[C@H](CO[P@](=O)(O)O[P@](=O)(O)O[P@@](=O)(O)S)[C@@H](O)[C@H]1O [ATPγS]
Kd (Spa47Δ1-83): 21.2 ± 0.8 µM
Ka (affinity constant) (Spa47Δ1-83; ITC, 25°C): 0.472±0.017 10^5. M^-1
ΔH (enthalpy variation) (Spa47Δ1-83; ITC, 25°C): -8.16 ± 0.16 kcal/mol
ΔS (entropy variation) (Spa47Δ1-83; ITC, 25°C): -6.00 cal/mole/deg

Nc1ncnc2c1ncn2[C@@H]1O[C@H](COP(=O)(O)OP(=O)(O)OP(=O)(O)O)[C@@H](O)[C@H]1O [ATP]
Kd (muscle creatine kinase): 4 to 16 µM
Kd (p97): 0.89 µM
Kd (Spa47Δ1-83; [2]): 23.1 ± 3.44 µM
Ka (affinity constant) (Spa47Δ1-83; ITC, 25°C): 0.443±0.070 10^5. M^-1
ΔH (enthalpy variation) (Spa47Δ1-83; ITC, 25°C): -4.99 ± 0.53 kcal/mol
ΔS (entropy variation) (Spa47Δ1-83; ITC, 25°C): 4.50 cal/mole/deg
Kd [1]: 22 µM
